Patent US11351275B2, “Metal complexes with bisphophonate or pyrophosphate useful as imaging agents” (Duke University, priority 2015, dated 2022)

Key:
[1] = identical field strength (7T), commercial Gd(III) agent; cited from earlier work
[2] = EDTA reference value in competition experiments; cited from earlier work
[3] = In vivo MR imaging (biodistribution) after i.v. administration of Mn complexes; design: species or system mouse
Method: FIG. 4A. In vivo MRI in control mouse after i.v. administration of MnNTA.
FIG. 4B. MRI after i.v. administration of Mn:ETID (50 μL of 40 mM solution).
In vivo behavior was tested of two relatively strong (log K1>7) ligands for Mn(II) chelation, nitrilotriacetic acid (NTA), closely related to EDTA, and […] (3,4-DBA).
This in vivo behavior was also what is observed for the FDA-approved agent Teslascan. In the past, development of paramagnetic Mn complexes for MRI has been challenged by the inherent coordination lability of Mn(II) (e.g., Irving Williams series), resulting in the propensity of Mn(II) to be trans-metallated by other endogenous metals such as zinc in vivo. The only FDA-approved approved Mn(II) PM complex for MRI was Teslascan, which has now been discontinued. […] Contrast enhancement was therefore based on free Mn and confined to the liver.
Enhancement of the bowel is also noted but more variable, believed to represent elimination of the coordination complex from the gallbladder into the small intestine. […]
Finally, it is worth noting that free Mn is believed to be toxic neurologically if allowed to accumulate to high concentrations in certain neuronal populations. […] Since Mn accumulation in tissues is readily visualized with MRI, however, selective delivery of Mn-containing agents is easily monitored. […]

4T1 tumor = test: Dynamic contrast enhancement of 4T1 tumor after i.v. administration; type: in vivo; conditions: pilot data, versus paramagnetic coordination complex alone
Method: FIG. 5. Dynamic contrast enhancement of 4T1 tumor after i.v. admin of 1-hydroxybisphosphonate:Mn complex linked to HSP90 inhibitor as in Scheme 1C, 25 mg/kg. Graph on left depicts relative change in T1 enhancement in tumors after labeled drug (n=5) and after Mn:ETID complex alone (n=6).
Several synthetic strategies were used for labeling small molecule drugs either directly or via polyethyleneglycol (PEG) linkers. Two lead complexes, the first with a medronate analogue (Scheme 1B) via the amine-terminated PEG linker, and the second an etidronate analogue coupled through the COOH-terminated PEG linker (Scheme 1C), have now been synthesized, characterized and studied preliminarily in vivo.

[4] = FDA-approved Mn(II) agent, prior experience; cited from earlier work

O=C([O-])CN1CCN(CC(=O)[O-])CCN([C@H](CO)[C@H](O)CO)CCN(CC(=O)[O-])CC1.[Gd+3] (racemic) [gadobutrol]
r1 (relaxivity stated as equivalent) [1]: 5.2 mM⁻¹ s⁻¹

O=C(O)CN(CCN(CC(=O)O)CC(=O)O)CC(=O)O [EDTA]
log K1 [2]: 26

O=C(O)CN(CC(=O)O)CC(=O)O [NTA, nitrilotriacetic acid]
cardiac enhancement ([3]; after i.v. administration, indicates free Mn released into blood pool): cardiac enhancement was also seen | biodistribution on in vivo MR imaging ([3]; mouse, in vivo, iv): consistent with release of free Mn and hepatocellular uptake

Cc1nn(-c2ccc(C(N)=O)c(NCCCOCCOCCOCCOCCOCCCNC(=O)CC(P(=O)(O)O)P(=O)(O)O)c2)c2c1C(=O)CC(C)(C)C2 [Scheme 1B]
enhancement in 4T1 tumors (4T1 tumor): progressive accumulation of enhancement in 4T1 tumors that is greater than what is seen for the paramagnetic coordination complex alone

Cc1nn(-c2ccc(C(N)=O)c(NCCCOCCOCCOCCOCCOCCCC(=O)NCCCC(O)(P(=O)(O)O)P(=O)(O)O)c2)c2c1C(=O)CC(C)(C)C2 [Scheme 1C]
enhancement in 4T1 tumors (4T1 tumor): progressive accumulation of enhancement in 4T1 tumors that is greater than what is seen for the paramagnetic coordination complex alone

Cc1ncc(COP(=O)([O-])[O-])c(CN(CCN(CC(=O)[O-])Cc2c(COP(=O)([O-])[O-])cnc(C)c2[O-])CC(=O)[O-])c1[O-].[H+].[H+].[H+].[Mn+2].[Na+].[Na+].[Na+] [Teslascan]
in vivo distribution behaviour [4]: immediately distributed to the liver, releasing free Mn
